Data: article PMC9227536, “Prediction of Pharmacokinetics of IDP-73152 in Humans Using Physiologically-Based Pharmacokinetics” (Pharmaceutics, 2022)
Where two headings read alike, the source gives them in different places.

What was measured:
[1] = Blood partitioning (LC-MS/MS-based depletion method), mouse; type: in vitro ADME; settings: whole blood, mice blood, 0.3, 1, 3 μM, read-out: BP (blood-to-plasma concentration ratio)
Method: In this study, the partitioning of IDP-73152 in blood samples obtained from mice, rats, dogs, and humans was determined using the LC-MS/MS-based depletion method with slight modifications. DP-73152 was added to an aliquot (1 mL) of blank blood or plasma at a final concentration of 0.3, 1, or 3 μM. The mixture was incubated at 37 °C in a water bath for 60 min. After the incubation, the plasma was separated by centrifugation of the blood samples for 5 min at 10,000× g/4 °C and stored at -80 °C until analysis. The blood-to-plasma concentration ratio (BP) was calculated using the equation:(3) BP=[…], where […] is the concentration of the compound at the corresponding blood concentration in the plasma, and CPL is the concentration from the plasma sample separated from the incubated blood.

[2] = Metabolic stability in liver microsomes, dog; type: in vitro ADME
Method: In this study, the metabolic stability of IDP-73152 in microsomes from mice, rats, dogs, and humans, as well as rat hepatocytes, was determined. For a microsomal incubation study, the incubation mixtures, containing mouse, rat, dog, or human liver microsomes at a protein concentration of 0.5 mg/mL, 3.3 mM MgCl2, and 1.3 mM NADPH, in a 100 mM potassium phosphate buffer (pH 7.4), were preincubated for 3 min at 37 °C. In parallel, a control incubation mixture (i.e., identical composition to that of the incubation mixture without NADPH) was also prepared for comparison. The reaction was initiated by the addition of a 10 × solution of IDP-73152 (final concentration in mixtures of 1 μM) to the incubation mixtures or the control incubation mixtures. The mixtures were incubated in a shaking water bath (37 °C, 90 rpm). Aliquots (30 μL) were collected at 0, 15, 30, and 45 min from the mixture and the reaction was terminated by the addition of a 4-fold volume of ice-cold acetonitrile to the sample. The mixture was then vortexed for 5 min and centrifuged for 10 min at 10,000× g. The supernatant was collected and stored at -80 °C until the analysis. For the hepatocyte incubation study, rat hepatocytes were freshly prepared using the two-step collagenase perfusion method with slight modifications. After the isolation, cell viability during the preparation process was first determined by a trypan blue exclusion assay prior to the stability study. The preparation was considered adequate for subsequent studies if the viability was greater than 80%. When appropriate, the hepatocytes were resuspended in Williams' media E containing 10% fetal bovine serum, 1% penicillin-streptomycin, and 0.01% insulin-transferrin-selenium (i.e., 10 mg/mL insulin, 5.5 mg/mL transferrin, and 5 mg/mL selenium) at pH 7.4. The reaction was carried out with the hepatocyte suspension prepared at 1 × 10^6 cells/mL (0.5 mL) and initiated by the addition of equal volume of IDP-73152 solution (i.e., final concentration of the compound at 1 μM in 0.5 × 10^6 cells/mL of hepatocytes) to the hepatocyte suspension. […] Assuming first-order disappearance kinetics, the slope k of the logarithmically transformed IDP-73152 concentration in the sample versus time plot was determined by the linear regression analysis of the data. The total intrinsic clearance (CLint,mic, μL/min/mg protein for microsomal incubation study and CLint,hep, μL/min/million cells for hepatocytes incubation study) was then calculated using the following equations:(4) CLint, mic=k×Volume of incubation medium (μL)/Protein in incubation medium (mg) (5) CLint,hep=k×Volume of incubation (μL)/Number of cells in incubation (×10^6) The unbound intrinsic clearance, with respect to the whole liver ([…]), was then estimated for the two cases. […]

[3] = design: method as in PMID 31440032; settings: cited from earlier work; for Observed AUCinf / Observed Cmax: humans, fasting

Compound: CC(C)(C)[C@H](NC(=O)[C@H](CC1CCCC1)CN(O)C=O)C(=O)N1CCC(NCc2cc(F)c(F)cc2F)CC1 [IDP-73152]
- blood plasma ratio at 60 min [1]: 1.31 ± 0.13
- CLhep predicted at 1 μM ([2]; dog, liver microsomes, pH 7.4, dogs, read-out: CLh calculated from the CLint,mic (converted)): 8.87 mL/min/kg
- microsomal CLint at 1 μM ([2]; dog, pH 7.4, dogs liver microsomes 0.5 mg/mL, 1 μM, read-out: CLint,mic): 62.6 ± 2.4 µL/min/mg
- hepatic ER (extraction ratio) ([2]; dogs, from microsomal clearance, well-stirred model): 0.106 ± 0.004
- CLu,int,H ([2]; dogs, scaled up to the whole liver from microsomes): 108 ± 4 L/h
- adverse effects ([3]; human subjects, single oral dose of 40–1280 mg): without clinically significant adverse effects
- Observed AUCinf ([3]; single oral 640 mg): 43400 ± 4470 ng·h/mL
- Observed Cmax ([3]; single oral 640 mg): 8920 ± 1170 ng/mL
- Observed AUCinf ([3]; single oral 1280 mg): 77400 ± 15400 ng·h/mL
- Observed Cmax ([3]; single oral 1280 mg): 13200 ± 2500 ng/mL
